Entries after “also recorded” stand apart in the source; their conditions may differ.
Experiments:
[1] = system: MCF7; assay: 5-AdC treatment of MORT-negative breast tumor line MCF7; assay type: cell-based, human; settings: 1 μM 5-AdC for 96 h
Experimental: (§1) Finite and immortalized HMEC were generated and grown as previously described^1, 2, 32. […] […]. Retroviral transduction was performed as described^1, 2. Breast tumor lines MDA-MB231, MDA-MB453, and MCF7 were grown as previously described^33, 34.
(§2) Cells were treated with 1 μM 5-aza-2′-deoxycytidine (Sigma) for 96 h, as previously described^33.
(§3) DNA methylation analysis by MassARRAY. DNA methylation analysis by Sequenom MassARRAY (Sequenom) was performed as described^40. Primer sequences are provided in FIG. 18 and are SEQ ID NOs: 3, 4, 5, and 6. Oligonucleotides used for MassARRAY analysis were ordered from Integrated DNA Technologies. Two MassARRAY amplicons covered 800 bp region including the first MORT exon and about 500 bp upstream MORT transcription start (FIG. 4C). The mean DNA methylation of all 26 informative CpG units within MassARRAY amplicons was used for data presentation and statistical analysis.
(§4) The reverse transcription and real-time PCR was performed as previously described in Oshiro M M, Watts G S, Wozniak R J, Junk D J, Munoz-Rodriguez J L, Domann F E, Futscher B W. Mutant p53 and aberrant cytosine methylation cooperate to silence gene expression. Oncogene 2003; 22:3624-34 (reference 1 herein), and Vrba L, Junk D J, Novak P, Futscher B W. p53 induces distinct epigenetic states at its direct target promoters. […]

[2] = system: MDA-MB231; assay: 5-AdC treatment of MORT-negative breast tumor line MDA-MB231; assay type: cell-based, human; settings: 1 μM 5-AdC for 96 h
Experimental: as §1, §2, §3, §4

[3] = system: 184Dp16sMY HMEC; assay: 5-AdC treatment of immortalized MORT negative HMEC line 184Dp16sMY; assay type: cell-based, human; settings: 96 h treatment, three concentrations of 5-AdC (FIG. 14)
Experimental: Finite and immortalized HMEC were generated and grown as previously described^1, 2, 32. […]. Retroviral transduction was performed as described^1, 2. Breast tumor lines MDA-MB231, MDA-MB453, and MCF7 were grown as previously described^33, 34. […]
The reverse transcription and real-time PCR was performed as previously described in Oshiro M M, Watts G S, Wozniak R J, Junk D J, Munoz-Rodriguez J L, Domann F E, Futscher B W. Mutant p53 and aberrant cytosine methylation cooperate to silence gene expression. Oncogene 2003; 22:3624-34 (reference 1 herein), and Vrba L, Junk D J, Novak P, Futscher B W. p53 induces distinct epigenetic states at its direct target promoters. BMC Genomics 2008; 9:486 (reference 41 herein), both incorporated herein by reference. Primers were designed for MORT, GAPDH, MYC and XIST and used with the Human Universal Probe Library Set (Roche Diagnostics). The cycle threshold (Ct) MORT values were normalized between the samples using GAPDH Ct values. The data were then converted into a value that is in log 2 scale, but increases with the expression level using formula 40-Ct. Since 40 was the total number of PCR cycles it was the lowest detectable expression level and therefore it was considered the background and set as 0 to display the data in the plots. […]

[4] = system: MDA-MB453; assay: 5-AdC treatment of MORT-negative breast tumor line MDA-MB453; assay type: cell-based, human; settings: 1 μM 5-AdC for 96 h
Experimental: as §1, §2, §3, §4

[5] = system: Immortal, MORT(−) 184Dp16sMY HMEC; assay: Reversal of immortalization: lentiviral restoration of MORT expression in immortal HMEC; assay type: cell-based, human; settings: qRT/PCR during MORT-mediated senescence
Experimental: Clontech's Tet-On® 3G system was used to construct lentiviral vectors that express 1) the MORT lncRNA sequence (MORT-Exact)(SEQ ID NO:8) and 2) an aberrant MORT lncRNA to which 60 nucleotides were added at the 5′ end of MORT that was predicted to disrupt RNA secondary structure rendering MORT either hypomorphic or completely nonfunctional (MORT-null). […] Immortal, MORT(−) 184Dp16sMY HMEC were either untreated or transduced with a lentivirus that expressed MORT-Exact, MORT-Null, or eGFP. Cells transduced with MORT-Exact cease growth and take on senescent phenotypes (FIG. 19A-19B).

[6] = MORT transcript half-life using actinomycin D treatment; assay type: cell-based; settings: actinomycin D 1 μg/ml; c-MYC and GAPDH as reference genes
Experimental: FIG. 7 is a graph showing determination of MORT transcript half-life using actinomycin D (1 μg/ml) treatment. c-MYC was used as a short half-life reference gene and GAPDH was used as a long half-life reference gene. (Yang et al. 2003). […] The error bars show the SEM of 3 independent experiments.
The reverse transcription and real-time PCR was performed as previously described in Oshiro M M, Watts G S, Wozniak R J, Junk D J, Munoz-Rodriguez J L, Domann F E, Futscher B W. Mutant p53 and aberrant cytosine methylation cooperate to silence gene expression. Oncogene 2003; 22:3624-34 (reference 1 herein), and Vrba L, Junk D J, Novak P, Futscher B W. p53 induces distinct epigenetic states at its direct target promoters. BMC Genomics 2008; 9:486 (reference 41 herein), both incorporated herein by reference. Primers were designed for MORT, GAPDH, MYC and XIST and used with the Human Universal Probe Library Set (Roche Diagnostics). The cycle threshold (Ct) MORT values were normalized between the samples using GAPDH Ct values. The data were then converted into a value that is in log 2 scale, but increases with the expression level using formula 40-Ct. Since 40 was the total number of PCR cycles it was the lowest detectable expression level and therefore it was considered the background and set as 0 to display the data in the plots.

Nc1ncn([C@H]2C[C@H](O)[C@@H](CO)O2)c(=O)n1 [5-AdC, 5-aza-2′-deoxycytidine]
level of DNA methylation of the MORT promoter ([1]; Sequenom MassARRAY): significant decrease | MORT expression (transcript level) ([1]; real-time PCR): reactivation of MORT expression | level of DNA methylation of the MORT promoter ([2]; Sequenom MassARRAY): significant decrease | MORT expression (transcript level) ([2]; real-time PCR): reactivation of MORT expression | MORT transcription (transcript level) [3]: reactivation of MORT transcription; also recorded: increased MORT level | level of DNA methylation of the MORT promoter ([4]; Sequenom MassARRAY): significant decrease | MORT expression (transcript level) ([4]; real-time PCR): reactivation of MORT expression

MORT: long non-coding RNA (lincRNA), 1.53 kb, ribonucleotide sequence SEQ ID NO:7
induced overexpression of p16 or p14 [5]: not due to induced overexpression of p16 or p14 | induction of p53 and p53 target genes MDM2, p21, PIG3, MASPIN [5]: neither p53 nor well-defined p53 target genes, MDM2, p21, PIG3, and MASPIN were induced | MORT transcript half-life [6]: ~15 h

— patent US10870851B2, “Non-coding RNAs linked to immortality and associated methods and compositions” (The Regents of the University of California, priority 2015, dated 2020)
